Laboratory results as given in US12509441B2, “Compounds used as kinase inhibitors and application thereof” (TYK MEDICINES (ZHENGZHOU), INC., priority 2020, dated 2025).
pIC50: −log10 of the molar value. Like-named read-outs stand apart in the source and are kept apart here.

How the values were obtained:
[1] = test system: H-1975 (EGFRL858R/T790M) cells; assay: Cell proliferation inhibitory activity test (WST-8) of related EGFR mutations; type: cell-based; conditions: Homo sapiens, read-out: IC 50 (nM) H-1975 (EGFRL858/T790M)
Procedure: (§1) Cell Proliferation Inhibitory Activity Test Experiments of Related EGFR Mutations: 1.
(§2) Cell culture medium: RPMI containing 10% fetal bovine serum, 5 mM HEPES, and 2 mM glutamine.
(§3) Incubated overnight in a 5% carbon dioxide incubator at 37° C.
(§4) The compound was diluted to the required concentration in the culture medium at five times the final concentration. 20 microliters of the compound diluent was transferred to a culture plate containing 80 microliters of the cells incubated overnight, and continued to be incubated for 72 hours.
(§5) After 72 hours, 10 microliters of 6 mg/ml WST8 solution dissolved in a phosphate buffer solution was added, and incubated for 3 hours in 5% carbon dioxide at 37° C. A light absorption value at 450 nm was read and subtracted by an absorption value at 650 nm.
(§6) The obtained light absorption value was used to calculate cell viability according to the following equation: Cell viability %=(OD determination value/OD drug-free cell)×100

[2] = test system: PC9 (EGFRdel19) cells; assay: as above; type: cell-based; conditions: 72 h, cell viability; read-out: IC 50 (nM) PC-9 (EGFRdel19)
Procedure: as §1, §2, §3, §4, §5, §6

[3] = molecular target: EGFR exon 20 insertion mutant kinase A763_Y764insFHEA (Homo sapiens, UniProt P00533, INS763FHEA); assay: Kinase activity assay (33P-ATP filter-binding), EGFR exon 20 insertion mutant kinase A763_Y764insFHEA; type: biochemical; conditions: for pIC50: ATP Km concentration, 10 concentrations
[4] = molecular target: EGFR exon 20 insertion mutant kinase D770-N771insNPG (Homo sapiens, UniProt P00533, INS770NPG); assay: Kinase activity assay (33P-ATP filter-binding), EGFR exon 20 insertion mutant kinase D770-N771insNPG; type: biochemical; conditions: ATP Km concentration; 10 concentrations
[5] = molecular target: T1, Ba/F3-FL-EGFR-V769-D770 ins ASV (Homo sapiens, UniProt P00533, DUP767-769, cells depend on it); assay: Cell proliferation inhibitory activity test (CellTiter-Glo), EGFR exon 20 insertion mutation; type: cell-based; conditions: 72 h, read-out: Ba/F3-FL-EGFR IC50 (nM) V769-D770ins ASV
T1 construct: Ba/F3-FL-EGFR IC50 (nM) V769-D770ins ASV; other: 72 h; class symbols; Ba/F3-FL-EGFR IC50 (nM) V769-D770ins ASV
Procedure: (§7) Cell Proliferation Inhibitory Activity Test Experiment of EGFR Exon 20 Insertion Mutation:
(§8) Cells such as Ba/F3-FL-EGFR-V769-D770 ins ASV, Ba/F3-FL-EGFR-D77-N771 ins SVD, Ba/F3-FL-EGFR-H773-V774 ins NPH, Ba/F3-FL-EGFR-A763-Y764 ins FQEA, constructed by Hefei Precedo Pharmaceuticals Co., Ltd.
(§9) 1000× compound mother liquor was prepared using DMSO, diluted to 20× final concentration using a culture medium, set aside.
(§10) Cells obtained after centrifugation were suspended with a certain amount of the culture medium and counted. The cell suspension solution was adjusted to a specified density using the culture medium, the diluted cell suspension solution was taken into a 96-well plate; 5 μl of 20× compound solution was added to each well of the 96-well plate, the content of DMSO in the final system was 0.1%; the 96-well plate was incubated for 72 h in a 5% CO2 cell incubator at 37° C.
(§11) The 96-well plate was brought to room temperature before detection, 50 μl of CellTiter-Glo® reagent was added to each well, the plate was read after being shaken for 2 minutes on a shaker and placed for 10 minutes at room temperature.
(§12) Inhibition rate (Inh %) relative to control wells processed by a solvent (DMSO) was calculated using the following equation: Inhibition rate (Inh %)=100−(RLU compound−RLU blank)/(RLU control−RLU blank)*100%

[6] = molecular target: Ba/F3-FL-EGFR-A763-Y764 ins FQEA (Homo sapiens, UniProt P00533, INS763FQEA, cells depend on it); assay: as above; type: cell-based; conditions: 72 h, read-out: Ba/F3-FL-EGFR IC50 (nM) A763-Y764ins FQEA
Procedure: as §7, §8, §9, §10, §11, §12

[7] = molecular target: Ba/F3-FL-EGFR-D77-N771 ins SVD (Homo sapiens, UniProt P00533, DUP768-770, cells depend on it); assay: as above; type: cell-based; conditions: 72 h, read-out: Ba/F3-FL-EGFR IC50 (nM) D77-N771ins SVD
Procedure: as §7, §8, §9, §10, §11, §12

[8] = molecular target: Ba/F3-FL-EGFR-H773-V774 ins NPH (Homo sapiens, UniProt P00533, DUP771-773, cells depend on it); assay: as above; type: cell-based; conditions: 72 h, read-out: Ba/F3-FL-EGFR IC50 (nM) H773-V774ins NPH
Procedure: as §7, §8, §9, §10, §11, §12

[9] = molecular target: Ba/F3 (EGFRdel19/L858R/C797S) (Homo sapiens, UniProt P00533, C797S/L858R, cells depend on it, form not given); assay: Cell proliferation inhibitory activity test (WST-8) of related EGFR mutations; type: cell-based; conditions: 72 h, cell viability; read-out: IC 50 (nM) Ba/F3 (EGFRdel19/L858/797s)

## C=CC(=O)Nc1cc(Nc2nccc(-c3cn(C)c4ccccc34)n2)c(OC)cc1N(C)CCN(C)C [AZD-9291, osimertinib, reference compound]
[1]; NCI-H1975, 72 h
  IC50: 20.2 nM
[2]
  IC50: 7.85 nM

## [2H]C([2H])([2H])n1cc(-c2nc(Nc3cc(NC(=O)C=C)c(N(C)CCN(C)C)nc3OCC(F)(F)F)ncc2-c2nnc(C)o2)c2ccccc21 [Example 3]
[3]
  pIC50: 8.22
[4]
  pIC50: 8.83

## C=CC(=O)Nc1cc(Nc2ncc(-c3nnc(C)o3)c(-c3cn(C4CC4)c4ccccc34)n2)c(OCC(F)(F)F)nc1N(C)CCN(C)C [Example 4]
[3]
  pIC50: 7.82
[4]
  pIC50: 8.55

## C=CC(=O)Nc1cc(Nc2ncc(C(=O)OC(C)C)c(-n3ncc4c3Cc3ccccc3-4)n2)c(OC)cc1N(C)CCN(C)C [Example 6]
[3]
  pIC50: 8.05
[4]
  pIC50: 8.86

## C=CC(=O)Nc1cc(Nc2ncc(C(=O)OC(C)C)c(-n3cc4c(n3)Cc3ccccc3-4)n2)c(OC)cc1N(C)CCN(C)C [Example 7]
[3]
  pIC50: 5.25
[4]
  pIC50: 5.92

## C=CC(=O)Nc1cc(Nc2ncc(C(=O)N(C)S(C)(=O)=O)c(-c3cn(C)c4ccccc34)n2)c(OC)cc1N(C)CCN(C)C [Example 9]
[3]
  pIC50: 7.98
[4]
  pIC50: 8.74

## [2H]C([2H])([2H])n1cc(-c2nc(Nc3cc(NC(=O)C=C)c(N(C)CCN(C)C)nc3OCC(F)(F)F)ncc2CO)c2ccccc21 [Example 10]
[3]
  pIC50: 7.44
[4]
  pIC50: 8.12

## C=CC(=O)Nc1cc(Nc2ncc(C(=O)OC(C)C)c(-n3ncc4c3-c3ccccc3C4)n2)c(OC)cc1N(C)CCN(C)C [Example 11]
[4]
  pIC50: 5.13

## C=CC(=O)Nc1cc(Nc2ncc(C(=O)OC(C)C)c(-n3cc4c(n3)-c3ccccc3C4)n2)c(OC)cc1N(C)CCN(C)C [Example 12]
[3]
  pIC50: 8.64
[3]; EGFR exon 20 insertion mutant kinases of Table 4
  activity relative to the compound with the optimal activity disclosed in WO2015195228A1 (TAK788): 2 to 3 times
[4]
  pIC50: 9.52

## C=CC(=O)Nc1cc(Nc2nccc(-n3ncc4c3-c3ccccc3C4)n2)c(OC)cc1N(C)CCN(C)C [Example 13]
[3]
  pIC50: 7.21
[4]
  pIC50: 6.77

## C=CC(=O)Nc1cc(Nc2ncc(C(=O)OC(C)C)c(-c3nn(C)c4c3Cc3ccccc3-4)n2)c(OC)cc1N(C)CCN(C)C [Example 14]
[3]
  pIC50: 7.35
[4]
  pIC50: 8.00

## C=CC(=O)Nc1cc(Nc2ncc(C3=NOC(C)(C)N3)c(-c3cn(C)c4ccccc34)n2)c(OC)cc1N(C)CCN(C)C [Example 19]
[5]; class symbols
  GI50: > 50 nM

## C=CC(=O)Nc1cc(Nc2ncc(C3=NOC(C)(C)O3)c(-c3cn(C)c4ccccc34)n2)c(OC)cc1N(C)CCN(C)C [Example 20]
[5]; class symbols
  GI50: > 50 nM

## C=CC(=O)Nc1cc(Nc2ncc(-c3nnco3)c(-c3cn(C)c4ccccc34)n2)c(OC)cc1N(C)CCN(C)C [Example 21]
[5]; class symbols
  GI50: < 5 nM

## C=CC(=O)Nc1cc(Nc2ncc(-c3nnc(C)o3)c(-c3cn(C)c4ccccc34)n2)c(OC)cc1N(C)C1(CN(C)C)CC1 [Example 22]
[5]; class symbols
  GI50: < 5 nM

## C=CC(=O)Nc1cc(Nc2ncc(-c3nnc(C)o3)c(-c3cn(C)c4ccccc34)n2)c(OC)cc1N(C)CC1(N(C)C)CC1 [Example 23]
[6]; class symbols
  GI50: < 5 nM
[7]; class symbols
  GI50: < 5 nM
[8]; class symbols
  GI50: < 5 nM
[5]; class symbols
  GI50: < 5 nM

## [2H]C([2H])([2H])n1cc(-c2nc(Nc3cc(NC(=O)C=C)c(N(C)CCN(C)C)cc3OC)ncc2-c2nnc(C)o2)c2ccccc21 [Example 24]
[6]; class symbols
  GI50: < 5 nM
[7]; class symbols
  GI50: < 5 nM
[8]; class symbols
  GI50: < 5 nM
[5]; class symbols
  GI50: < 5 nM

## C=CC(=O)Nc1cc(Nc2ncc(-c3nnc(C)s3)c(-c3cn(C)c4ccccc34)n2)c(OC)cc1N(C)CCN(C)C [Example 25]
[6]; class symbols
  GI50: < 5 nM
[7]; class symbols
  GI50: 5 to 50 nM
[8]; class symbols
  GI50: 5 to 50 nM
[5]; class symbols
  GI50: < 5 nM

## C=CC(=O)Nc1cc(Nc2ncc(-c3nnc(C)o3)c(-c3c[nH]c4ccccc34)n2)c(OC)cc1N(C)CCN(C)C [Example 26]
[6]; class symbols
  GI50: < 5 nM
[7]; class symbols
  GI50: < 5 nM
[8]; class symbols
  GI50: < 5 nM
[5]; class symbols
  GI50: < 5 nM

## C=C(F)C(=O)Nc1cc(Nc2ncc(-c3nnc(C)o3)c(-c3cn(C)c4ccccc34)n2)c(OC)cc1N(C)CCN(C)C [Example 27]
[5]; class symbols
  GI50: 5 to 50 nM

## C=CC(=O)Nc1cc(Nc2ncc(-c3nnc(C)o3)c(-c3cn(C)c4ccccc34)n2)c(OC)cc1N1C[C@H]2CN(C)C[C@H]2C1 [Example 28]
[5]; class symbols
  GI50: > 50 nM

## C=CC(=O)Nc1cc(Nc2ncc(-c3nnc(C(F)F)s3)c(-c3cn(C)c4ccccc34)n2)c(OC)cc1N(C)CCN(C)C [Example 29]
[6]; class symbols
  GI50: < 5 nM
[7]; class symbols
  GI50: < 5 nM
[8]; class symbols
  GI50: 5 to 50 nM
[5]; class symbols
  GI50: 5 to 50 nM

## C=CC(=O)Nc1cc(Nc2ncc(-c3nnc(C)o3)c(-c3cn(C)c4ccccc34)n2)c(OC)cc1N(C)C1CC2(C1)CN(C)C2 [Example 30]
[5]; class symbols
  GI50: > 50 nM

## C=CC(=O)Nc1cc(Nc2ncc(-c3nnc(C(C)C)o3)c(-c3cn(C)c4ccccc34)n2)c(OC)cc1N(C)CCN(C)C [Example 31]
[5]; class symbols
  GI50: < 5 nM

## C=CC(=O)Nc1cc(Nc2ncc(-c3nnc(C)o3)c(-c3cn(C)c4ccccc34)n2)c(OC)cc1N(C)C1CCN(C)CC1 [Example 32]
[5]; class symbols
  GI50: 5 to 50 nM

## C=CC(=O)Nc1cc(Nc2ncc(-c3nnc(CC)o3)c(-c3cn(C)c4ccccc34)n2)c(OC)cc1N(C)CCN(C)C [Example 33]
[6]; class symbols
  GI50: < 5 nM
[7]; class symbols
  GI50: < 5 nM
[8]; class symbols
  GI50: < 5 nM
[5]; class symbols
  GI50: < 5 nM

## C=C(F)C(=O)Nc1cc(Nc2ncc(-c3nnc(C)o3)c(-c3cn(C)c4ccccc34)n2)c(OC)cc1N(C)[C@H]1[C@@H]2CN(C)C[C@@H]21 [Example 34]
[6]; class symbols
  GI50: < 5 nM
[7]; class symbols
  GI50: < 5 nM
[8]; class symbols
  GI50: 5 to 50 nM
[5]; class symbols
  GI50: < 5 nM

## C=CC(=O)Nc1cc(Nc2ncc(C(=O)OC(C)C)c(-c3cn(C)c4ccccc34)n2)c(OC)cc1N1C[C@H]2CN(C)C[C@H]2C1 [Example 36]
[6]; class symbols
  GI50: < 5 nM
[7]; class symbols
  GI50: < 5 nM
[8]; class symbols
  GI50: < 5 nM
[5]; class symbols
  GI50: < 5 nM

## C=CC(=O)Nc1cc(Nc2ncc(C(=O)OC(C)C)c(-c3cn(C)c4ccccc34)n2)c(OC)cc1N(C)[C@H]1[C@@H]2CN(C)C[C@@H]21 [Example 40]
[6]; class symbols
  GI50: < 5 nM
[7]; class symbols
  GI50: < 5 nM
[8]; class symbols
  GI50: < 5 nM
[5]; class symbols
  GI50: < 5 nM

## C=CC(=O)Nc1cc(Nc2ncc(C(=O)OC(C)C)c(-c3cn(C)c4ccccc34)n2)c(OC)cc1N(C)CC1(N(C)C)CC1 [Example 41]
[6]; class symbols
  GI50: < 5 nM
[7]; class symbols
  GI50: < 5 nM
[8]; class symbols
  GI50: < 5 nM
[5]; class symbols
  GI50: < 5 nM

## C=CC(=O)Nc1cc(Nc2ncc(C(=O)OC(C)C)c(-c3cn(C)c4ccccc34)n2)c(OC)cc1N(C)C1(CN(C)C)CC1 [Example 42]
[5]; class symbols
  GI50: < 5 nM

## C=CC(=O)Nc1cc(Nc2ncc(C(=O)OC(C)C)c(-c3cn(C)c4ccccc34)n2)c(OC)cc1N(C)[C@H]1C[C@@H]2CN(C)C[C@@H]2C1 [Example 43]
[5]; class symbols
  GI50: < 5 nM

## [2H]C([2H])([2H])n1cc(-c2nc(Nc3cc(NC(=O)C=C)c(N(C)[C@H]4[C@@H]5CN(C)C[C@@H]54)cc3OC)ncc2C(=O)OC(C)C)c2ccccc21 [Example 47]
[6]; class symbols
  GI50: < 5 nM
[7]; class symbols
  GI50: < 5 nM
[8]; class symbols
  GI50: < 5 nM
[5]; class symbols
  GI50: < 5 nM

## C=CC(=O)Nc1cc(Nc2ncc(C(=O)OC(C)C)c(-c3cn(C)c4ccccc34)n2)c(OC)cc1N(C)CCN(C)C [TAK788, reference compound]
[6]
  GI50: 3.3 nM
[7]
  GI50: 3.9 nM
[8]
  GI50: 3.6 nM
[9]
  GI50: 2630 nM
[3]
  pIC50: 8.38
[4]
  pIC50: 9.14
[1]; NCI-H1975, 72 h, cell viability
  IC50: 101 nM
[5]
  GI50: 4 nM
[2]
  IC50: 24.1 nM
